This is an account of results in patent US9629823B2, “Composition for promoting collagen production, for promoting elastin production and/or for promoting keratinocyte migration and usage therefor” (PUBLIC UNIVERSITY CORPORATION OSAKA CITY UNIVERSITY, priority 2013, dated 2017).

For data set [1], the system named is human normal skin-derived keratinocyte HaCaT cells. The data set can be described thus: Scratch (wound healing) assay of keratinocyte migration. Particulars: 24 hours, control = 100. The data set is classed as cell-based. The protocol:
Cells of human normal skin-derived keratinocyte HaCaT cells were inoculated at a density of 5.0×10^5 cells/dish in a plastic dish having a diameter of 35 mm with a mark on the bottom and cultured until they reached confluence in a 5% CO2 incubator at 37° C. The culture medium used was Dulbecco's modified Eagle's medium (DMEM: Nissui Pharmaceutical Co., Ltd.) containing 10% fetal bovine serum (FBS: Nichirei Biosciences, Inc.), penicillin (50 units/ml, Meiji Co., Ltd.) and streptomycin ([…], Meiji Co., Ltd.). The medium was replaced every two days.
After culturing the cells until they reached confluence, cells in the dish were scraped with a chip and a linear wound pattern was formed therewith. Immediately thereafter, the wound pattern was analysed under an inverted microscope (OLYMPUS IX-70: Olympus Corporation) and photographed. […] The wound pattern was then analysed with OLYMPUS IX-70 and photographed. […]
Based on the obtained photographic images, the width of wound patterns in the samples was measured. […] Based on the measurement results, the repair rate in the region of the wound by sesaminol was calculated. The repair rates for the samples calculated are as follows with the rate for the control being 100.

For data set [2], the system named is type I collagen in CCD-10595K cells. The data set can be described thus: Collagen production by immunohistochemistry (anti-type I collagen) in fibroblasts. The data set is classed as cell-based, human. Particulars: sesaminol 15 or 30 μg/ml, 24 hours. The procedure:
Cells of human normal skin-derived fibroblast CCD-10595K strain (purchased from DS Pharma Biomedical Co., Ltd.) were inoculated at a density of 3.0×10^4 cells/ml in a plastic dish having a diameter of 35 mm and cultured in a 5% CO2 incubator at 37° C. The medium used was the same medium as in Example 1. After 1 or 2 days, the medium was replaced with the medium containing the sesaminol solution so as to contain sesaminol at a final concentration of 15 or 30 μg/ml and the cells were incubated for 24 hours in a 5% CO2 incubator at 37° C. As a control, incubation was carried out using the medium without sesaminol solution.
After the incubation, cells were washed three times with PBS. Cells were then fixed in 4% paraformaldehyde and stored overnight at 4° C. The fixed cells were treated with 0.1% Triton®-X100 diluted in PBS for 5 minutes and washed with PBS for 5 minutes. The treated cells were blocked in 3% H2O2 and washed with PBS for 5 minutes. The cells were further blocked in 10% normal goat serum and washed with PBS for 5 minutes. A rabbit anti-type I collagen antibody (LSL) diluted 200-fold in PBS was added to the cells on a slide glass which were then incubated for 1 hour and washed with PBS for 5 minutes. […] The prepared slide was analysed on OLYMPUS IX-70 and images of stained cells were obtained.

For data set [3] the test system is unchanged. Nature of the data set: Collagen production by western blot analysis in fibroblasts. The data set is classed as cell-based, human. Particulars: sesaminol 15 or 30 μg/ml, 24 hours. The procedure: (§1) Cells of human normal skin-derived fibroblast CCD-10595K cells (purchased from DS Pharma Biomedical Co., Ltd.) were inoculated in a plastic dish having a diameter of 35 mm and cultured until they reached confluence in a 5% CO2 incubator at 37° C. Thereafter, the medium was replaced with the medium containing the sesaminol solution so as to contain sesaminol at a final concentration of 15 or 30 μg/ml and the cells were incubated for 24 hours in a 5% CO2 incubator at 37° C. The medium used was the same medium as in Example 1. The medium was replaced every two days until the cells reached confluence. As a control, incubation was carried out using the medium without sesaminol solution.
(§2) After the incubation, cells were washed twice with PBS and collected into a 1.5-ml tube using a cell scraper. […] An aliquot of the collected supernatant was subjected to protein quantification using Serva Blue G (Serva Electrophoresis GmbH) based on the absorbance at 595 nm in order to calculate the amount of sample applied to electrophoresis.
(§3) Equal volumes of the supernatant containing cell lysate and a sample buffer were mixed and heated at 90° C. for 5 minutes to prepare a sample for electrophoresis. […] The ratio of the band intensity of type I collagen or elastin relative to the band intensity of β-actin was calculated for the samples.
A general note: A western blot detects proteins with antibodies after separation by electrophoresis.

Data set [4] has as its system various cell lines used in Examples. Nature of the data set: Toxicity and viability check on the cell lines used in Examples. The data set is classed as cell-based. Particulars: sesaminol solution (3.0 mg/ml in DMSO). The procedure:
The highly concentrated sesaminol solution was dissolved in dimethyl sulphoxide (DMSO) to prepare a sesaminol solution (3.0 mg/ml) to be used in Examples.

Data set [5] relates to elastin in CCD-10595K cells. Nature of the data set: Elastin production by western blot analysis in fibroblasts. The data set is classed as cell-based, human. Particulars: sesaminol 15 or 30 μg/ml, 24 hours. The procedure:
as §1, §2, §3

For `Oc1cc2c(cc1C1OCC3C(c4ccc5c(c4)OCO5)OCC13)OCO2` (stereo not shown) [sesaminol], in data set [1] (sesaminol 15 μg/ml), the “repair rate in the region of the wound (control being 100)” value amounted to 121.7±25.6. Further, in data set [1] (sesaminol 30 μg/ml), the “repair rate in the region of the wound (control being 100)” value is on record as 139.1±20.6. The “type I collagen staining intensity vs control (FIG. 2)” value in data set [2] is given as “stained more intensely than the control”. The “expression level of collagen (band intensity ratio to β-actin, control = 1; FIG. 3)” value in data set [3] is reported as “increased”. Also, in data set [4], the “effect on cell viability” value was “did not affect viability” and the “toxicity to cell lines” value was “not toxic”. Moreover, in data set [5], the “expression level of elastin (band intensity ratio to β-actin, control = 1; FIG. 4)” value was “increased”.
